According to publication PMC12030497, “Plasma Protein Binding, Biostability, Metabolite Profiling, and CYP450 Phenotype of TPB15 Across Different Species: A Novel Smoothened Inhibitor for TNBC Therapy” (Pharmaceutics, 2025):
Several values for one entry are separate records, joined by “and”; a condition that tells them apart may be missing. Equal entries are not always repeated.

Key:
[1] = Metabolic stability in human liver microsomes (HLM); format: in vitro ADME; settings: HLM; for Concentration (ng/mL) of testosterone, Mean: positive control substrate
Experimental: (§1) A total of 450 μL liver microsomes from mice, rat, dog, monkey, and human were spiked with 0.5 μL of TPB15 solution and pre-incubated in a water bath at 37 °C for 10 min. Following this, 50 μL of NADPH were added to initiate the reaction. The concentrations of each substance in the incubation system are detailed in Table 1. After initiating the metabolic reaction, 50 μL aliquots were removed at incubation times of 0, 5, 15, 30, 45, 60, and 90 min and transferred to 150 μL of icy methanol solution containing the internal standard to terminate the reaction. The mixtures were swirled for 2 min and then centrifuged at 14,800 rpm at 4 °C for 10 min. […] Three samples were prepared in parallel at each time point. Additionally, both a positive control group and a blank control group were established. In the positive control group, substrate testosterone was incubated with liver microsomes from mice, rat, dog, monkey, and human. The concentrations of substrate testosterone were measured at 0 and 90 min, and the changes in concentration before and after incubation were compared to confirm the activity of the liver microsomes. The blank control group included one drug-containing inactivated liver microsome sample for each species. The metabolic stability parameters, including in vitro elimination half-life (T1/2) and in vitro intrinsic clearance rate (CLint), were calculated based on this graph using the following formulas: in vitro elimination half-life (T1/2) = −0.693/k and in vitro intrinsic clearance rate (CLint) = (0.693 × incubation medium (mL))/(liver microsomes (mg) × T1/2).

[2] = Metabolic stability in rat liver microsomes (RLM); format: in vitro ADME, Sprague-Dawley rat; settings: RLM; for Concentration (ng/mL) of testosterone, Mean: positive control substrate
Experimental: as §1

[3] = Metabolic stability in monkey liver microsomes (MLM); format: in vitro ADME, crab-eating monkey; settings: MLM; for Concentration (ng/mL) of testosterone, Mean: positive control substrate
Experimental: as §1

[4] = Metabolic stability in mouse liver microsomes (MouLM); format: in vitro ADME, KM mice; settings: MouLM, 0 min
Experimental: as §1

[5] = Metabolic stability in dog liver microsomes (DLM); format: in vitro ADME, beagle dog; settings: DLM; for Concentration (ng/mL) of testosterone, Mean: positive control substrate
Experimental: as §1

CYP2C8 = target: T1, CYP2C8 (Homo sapiens, UniProt P10632); assay: TPB15 metabolism in human liver microsomes with CYP2C8 inhibitor; format: in vitro ADME; settings: inhibition of TPB15 metabolism, HLM, 90 min, Quercetin 20 μM (CYP2C8)
T1 construct: tissue Jiangsu Kejing Bio-Pharmaceutical Co., Ltd; host or cells: human liver microsomes
T1 sequence (P10632 1-490): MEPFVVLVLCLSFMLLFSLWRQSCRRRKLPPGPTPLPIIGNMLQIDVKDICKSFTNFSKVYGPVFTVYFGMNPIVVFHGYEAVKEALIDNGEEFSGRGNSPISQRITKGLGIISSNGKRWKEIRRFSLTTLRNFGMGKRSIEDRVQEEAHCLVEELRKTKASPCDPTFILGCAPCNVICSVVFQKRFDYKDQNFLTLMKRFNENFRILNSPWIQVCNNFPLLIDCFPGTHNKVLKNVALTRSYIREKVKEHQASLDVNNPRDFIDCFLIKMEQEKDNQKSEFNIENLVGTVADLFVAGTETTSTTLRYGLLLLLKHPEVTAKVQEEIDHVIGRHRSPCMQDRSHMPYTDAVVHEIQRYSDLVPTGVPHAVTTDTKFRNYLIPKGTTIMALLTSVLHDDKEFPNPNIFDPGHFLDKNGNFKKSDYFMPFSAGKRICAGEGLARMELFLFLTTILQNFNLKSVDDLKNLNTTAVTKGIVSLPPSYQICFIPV
Experimental: Three parallel samples were prepared for each time point.

CYP2C9 = CYP2C9 (Homo sapiens, UniProt P11712); settings: inhibition of TPB15 metabolism, HLM, 90 min, Sulfaphenazole 20 μM (CYP2C9)
Experimental: (§2) The specific inhibitors of P450 were employed to evaluate the metabolic phenotype of TPB15, and the metabolic enzymes corresponding to each inhibitor and the system concentration are shown in Table 2. The specific procedure was as follows: a total of 0.5 μL of the substrate TPB15 and 0.5 μL of each specific inhibitor were mixed with 449 μL of human liver microsomes, and the mixture was incubated at 37 °C for 10 min. Subsequently, 50 μL of NADPH with a concentration of 10 mM in PBS were introduced to initiate the reaction. After 90 min, 50 μL of the reaction mixture were transferred to a 150 μL ice-cold methanol solution containing an internal standard to terminate the reaction. The mixture was vortexed for 2 min and then centrifuged at 4 °C at 14,800 rpm for 10 min. A volume of 130 μL of the supernatant was then transferred to a new EP tube, which was centrifuged again at 4 °C at 14,800 rpm for another 10 min. Finally, 5 μL of the supernatant were injected for the determination of substrate TPB15 concentration. Three parallel samples were prepared for each time point. The experiment also included a positive control group and a negative control group. In the positive control group, substrate TPB15 was incubated with human liver microsomes for 90 min without the addition of inhibitors.

[6] = tested on: CYP450 enzymes in human liver microsomes; assay: Metabolic enzyme phenotype of TPB15 in human liver microsomes with selective CYP450 inhibitors; format: in vitro ADME; settings: 90 min
Experimental: The specific procedure was as follows: a total of 0.5 μL of the substrate TPB15 and 0.5 μL of each specific inhibitor were mixed with 449 μL of human liver microsomes, and the mixture was incubated at 37 °C for 10 min. Subsequently, 50 μL of NADPH with a concentration of 10 mM in PBS were introduced to initiate the reaction. After 90 min, 50 μL of the reaction mixture were transferred to a 150 μL ice-cold methanol solution containing an internal standard to terminate the reaction. The mixture was vortexed for 2 min and then centrifuged at 4 °C at 14,800 rpm for 10 min. A volume of 130 μL of the supernatant was then transferred to a new EP tube, which was centrifuged again at 4 °C at 14,800 rpm for another 10 min. Finally, 5 μL of the supernatant were injected for the determination of substrate TPB15 concentration. Three parallel samples were prepared for each time point. The experiment also included a positive control group and a negative control group. In the positive control group, substrate TPB15 was incubated with human liver microsomes for 90 min without the addition of inhibitors. In the negative control group, the substrate TPB15 was incubated for 90 min without inhibitors, with human liver microsomes replaced by an equal volume of phosphate-buffered saline (PBS). The metabolic rate of TPB15 in human liver microsomes was represented by the elimination rate of the substrate TPB15.

CYP2A6 = target: T2, CYP2A6 (Homo sapiens, UniProt P11509); assay: TPB15 metabolism in human liver microsomes with CYP2A6 inhibitor; format: in vitro ADME; settings: inhibition of TPB15 metabolism, HLM, 90 min, Coumarin 25 μM (CYP2A6)
T2 construct: tissue Jiangsu Kejing Bio-Pharmaceutical Co., Ltd; host or cells: human liver microsomes
T2 sequence (P11509 1-494): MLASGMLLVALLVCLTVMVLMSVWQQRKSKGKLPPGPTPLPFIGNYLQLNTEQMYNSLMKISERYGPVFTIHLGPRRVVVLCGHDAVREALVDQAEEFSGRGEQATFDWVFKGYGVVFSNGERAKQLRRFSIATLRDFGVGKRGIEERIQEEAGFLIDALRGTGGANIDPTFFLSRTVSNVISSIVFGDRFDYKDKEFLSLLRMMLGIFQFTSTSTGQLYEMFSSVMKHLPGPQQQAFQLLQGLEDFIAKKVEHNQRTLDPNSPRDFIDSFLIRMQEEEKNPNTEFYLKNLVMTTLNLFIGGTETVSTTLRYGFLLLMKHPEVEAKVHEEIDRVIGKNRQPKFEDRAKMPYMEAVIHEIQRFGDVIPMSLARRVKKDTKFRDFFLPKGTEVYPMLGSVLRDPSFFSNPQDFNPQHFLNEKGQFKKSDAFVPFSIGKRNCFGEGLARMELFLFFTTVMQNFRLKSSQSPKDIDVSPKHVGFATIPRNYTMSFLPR
Experimental: as §2

Sequence of CYP2C9 (P11712 whole entry): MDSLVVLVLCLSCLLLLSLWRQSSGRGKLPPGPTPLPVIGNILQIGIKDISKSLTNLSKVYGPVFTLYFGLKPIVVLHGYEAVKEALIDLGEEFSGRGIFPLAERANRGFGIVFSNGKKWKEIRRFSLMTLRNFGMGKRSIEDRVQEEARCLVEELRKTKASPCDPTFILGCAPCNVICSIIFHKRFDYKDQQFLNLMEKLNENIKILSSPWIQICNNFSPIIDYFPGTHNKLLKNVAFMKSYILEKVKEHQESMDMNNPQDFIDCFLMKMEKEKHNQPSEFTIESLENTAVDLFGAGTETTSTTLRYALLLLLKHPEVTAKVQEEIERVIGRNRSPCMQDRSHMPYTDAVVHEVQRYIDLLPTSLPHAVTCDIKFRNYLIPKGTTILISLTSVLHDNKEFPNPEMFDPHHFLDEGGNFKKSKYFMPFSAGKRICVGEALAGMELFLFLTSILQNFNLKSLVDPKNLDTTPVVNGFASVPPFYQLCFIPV

SMILES: C[C@]12CC[C@H]3[C@@H](CCC4=CC(=O)CC[C@@]43C)[C@@H]1CC[C@@H]2O [testosterone]
- Concentration (ng/mL) of testosterone, single samples (serial number 1-3) ([1]; 0 min): 273 ng/mL and 379 ng/mL and 308 ng/mL
- Concentration (ng/mL) of testosterone, Mean ([1]; 0 min): 320.0 ng/mL
- Concentration (ng/mL) of testosterone, single samples (serial number 1-3) ([1]; 90 min): 19.2 ng/mL and 22.9 ng/mL and 34.7 ng/mL
- Concentration (ng/mL) of testosterone, Mean ([1]; 90 min): 25.6 ng/mL
- Concentration (ng/mL) of testosterone, single samples (serial number 1-3) ([2]; 0 min): 331 ng/mL and 303 ng/mL
- Concentration (ng/mL) of testosterone, Mean ([2]; 0 min): 321.7 ng/mL
- Concentration (ng/mL) of testosterone, Mean ([2]; 90 min): 22.6 ng/mL
- Concentration (ng/mL) of testosterone, single samples (serial number 1-3) ([3]; 0 min): 293 ng/mL and 385 ng/mL and 301 ng/mL
- Concentration (ng/mL) of testosterone, Mean ([3]; 0 min): 326.4 ng/mL
- Concentration (ng/mL) of testosterone, single samples (serial number 1-3) ([3]; 90 min): 29.2 ng/mL and 39.7 ng/mL and 38.2 ng/mL
- Concentration (ng/mL) of testosterone, Mean ([3]; 90 min): 35.7 ng/mL
- Concentration (ng/mL) of testosterone, single samples (serial number 1-3) [4]: 400 ng/mL and 314 ng/mL and 356 ng/mL
- Concentration (ng/mL) of testosterone, Mean ([4]; positive control substrate): 356.7 ng/mL
- Concentration (ng/mL) of testosterone, single samples (serial number 1-3) ([5]; 0 min): 300 ng/mL and 364 ng/mL and 375 ng/mL
- Concentration (ng/mL) of testosterone, Mean ([5]; 0 min): 346.3 ng/mL
- Concentration (ng/mL) of testosterone, Mean ([5]; 90 min): 17.5 ng/mL

SMILES: O=c1c(O)c(-c2ccc(O)c(O)c2)oc2cc(O)cc(O)c12 [Quercetin]
- Inhibitor Rate (%) (CYP2C8): 8.63%

SMILES: Nc1ccc(S(=O)(=O)Nc2ccnn2-c2ccccc2)cc1 [Sulfaphenazole, reference compound]
- Inhibitor Rate (%) (CYP2C9): 81.22%
- effect of selective CYP450 inhibitor on TPB15 metabolism (significance vs positive control group) [6]: significantly inhibited

SMILES: O=c1ccc2ccccc2o1 [Coumarin]
- Inhibitor Rate (%) (CYP2A6): 6.60%
